“And” between values parts separate entries of the source, which are not always exact repeats. Equal entries are not always repeated. Toxic doses and inconclusive results are not listed.
System: L1210 leukemia ip in BDF1 mice, survival T/C
Experiment: NCI In Vivo Anticancer Drug Screen. Data for tumor model L1210 Leukemia (intraperitoneal) in B6D2F1 (BDF1) mice
Conditions: endpoint: mean survival time, higher = longer survival
How it was run: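 Tumor was transplanted into mice, which were then dosed with test compound or vehicle alone. Survival was recorded for each group, and the treated figure was expressed relative to the control figure.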

[1] = dose: 100.0 mg/kg/injection, schedule: Q01DX009 (ip), vehicle: saline with Tween-80
[2] = dose: 200.0 mg/kg/injection, schedule: Q01DX009 (ip), vehicle: saline with Tween-80
[3] = dose: 400.0 mg/kg/injection, schedule: Q01DX009 (ip), vehicle: saline with Tween-80
[4] = dose: 50.0 mg/kg/injection, schedule: Q01DX009 (ip), vehicle: saline
[5] = dose: 100.0 mg/kg/injection, schedule: Q01DX009 (ip), vehicle: saline
[6] = dose: 100.0 mg/kg/injection, schedule: Q04DX003 (ip), vehicle: saline
[7] = dose: 200.0 mg/kg/injection, schedule: Q01DX009 (ip), vehicle: saline
[8] = dose: 200.0 mg/kg/injection, schedule: Q04DX003 (ip), vehicle: saline
[9] = dose: 400.0 mg/kg/injection, schedule: Q01DX009 (ip), vehicle: saline
[10] = dose: 400.0 mg/kg/injection, schedule: Q04DX003 (ip), vehicle: saline
[11] = dose: 100.0 mg/kg/injection, schedule: Q04DX003 (ip), vehicle: Klucel (hydroxypropylcellulose) (HPC)
[12] = dose: 100.0 mg/kg/injection, schedule: Q01DX001 (ip), vehicle: saline
[13] = dose: 200.0 mg/kg/injection, schedule: Q01DX001 (ip), vehicle: saline
[14] = dose: 400.0 mg/kg/injection, schedule: Q01DX001 (ip), vehicle: saline

With O=NN1C(=O)N[C@@H]2[C@H]1CS[C@@H]2CCCCC(=O)O the T/C (dose: 50.0 mg/kg/injection, schedule: Q01DX001 (ip), vehicle: carboxymethylcellulose (CMC)) was 101 % of control, the T/C (dose: 100.0 mg/kg/injection, schedule: Q01DX001 (ip), vehicle: carboxymethylcellulose (CMC)) was 96 % of control and the T/C (dose: 200.0 mg/kg/injection, schedule: Q01DX001 (ip), vehicle: carboxymethylcellulose (CMC)) was 101 % of control. The T/C (dose: 300.0 mg/kg/injection, schedule: Q01DX001 (ip), vehicle: carboxymethylcellulose (CMC)) was 95 % of control, the T/C (dose: 400.0 mg/kg/injection, schedule: Q01DX001 (ip), vehicle: carboxymethylcellulose (CMC)) was 95 % of control and the T/C (dose: 600.0 mg/kg/injection, schedule: Q01DX001 (ip), vehicle: carboxymethylcellulose (CMC)) was 87 % of control. For the same compound, the T/C (dose: 800.0 mg/kg/injection, schedule: Q01DX001 (ip), vehicle: carboxymethylcellulose (CMC)) was 90 % of control.

For Cc1nc(-c2ccccc2)no1, the T/C (dose: 75.0 mg/kg/injection, schedule: Q01DX009 (ip), vehicle: Klucel (hydroxypropylcellulose) (HPC)) was 102 % of control, the T/C (dose: 100.0 mg/kg/injection, schedule: Q04DX002 (ip), vehicle: Klucel (hydroxypropylcellulose) (HPC)) was 97 % of control and the T/C (dose: 150.0 mg/kg/injection, schedule: Q01DX009 (ip), vehicle: Klucel (hydroxypropylcellulose) (HPC)) was 98 % of control. The T/C (dose: 200.0 mg/kg/injection, schedule: Q04DX002 (ip), vehicle: Klucel (hydroxypropylcellulose) (HPC)) was 102 % of control, the T/C (dose: 300.0 mg/kg/injection, schedule: Q01DX009 (ip), vehicle: Klucel (hydroxypropylcellulose) (HPC)) was 101 % of control and the T/C (dose: 400.0 mg/kg/injection, schedule: Q04DX002 (ip), vehicle: Klucel (hydroxypropylcellulose) (HPC)) was 97 % of control.

For CC(=O)N(C)Nc1ccccc1, the T/C [1] was 116 % of control, the T/C (dose: 100.0 mg/kg/injection, schedule: Q04DX003 (ip), vehicle: saline with Tween-80) was 91 % of control and the T/C [2] was 97 % of control. For the same compound, the T/C (dose: 200.0 mg/kg/injection, schedule: Q04DX003 (ip), vehicle: saline with Tween-80) was 91 % of control, the T/C [3] was 90 % of control and the T/C (dose: 400.0 mg/kg/injection, schedule: Q04DX003 (ip), vehicle: saline with Tween-80) was 106 % of control.

For COc1ccc(NC(=S)NC(=O)COc2ccccc2)cc1, the T/C [1] was 101 % of control and 107 % of control, the T/C (dose: 100.0 mg/kg/injection, schedule: Q04DX002 (ip), vehicle: saline with Tween-80) was 107 % of control and 87 % of control and the T/C [2] was 102 % of control. The T/C (dose: 200.0 mg/kg/injection, schedule: Q04DX002 (ip), vehicle: saline with Tween-80) was 100 % of control and 90 % of control, the T/C [3] was 89 % of control and the T/C (dose: 400.0 mg/kg/injection, schedule: Q04DX002 (ip), vehicle: saline with Tween-80) was 106 % of control.

With CCOC(=O)/C(=C\c1ccc2c(c1)OCO2)NC(=O)c1ccccc1 the T/C [4] was 102 % of control, the T/C [5] was 102 % of control and the T/C [6] was 98 % of control. The T/C [7] was 118 % of control, the T/C [8] was 92 % of control and the T/C [9] was 100 % of control. The T/C [10] was 92 % of control.

C(=Nc1cnc2sccc2c1)c1ccccc1 was tested, and the T/C [11] was 100 % of control, the T/C (dose: 200.0 mg/kg/injection, schedule: Q04DX003 (ip), vehicle: Klucel (hydroxypropylcellulose) (HPC)) was 100 % of control and the T/C (dose: 400.0 mg/kg/injection, schedule: Q04DX003 (ip), vehicle: Klucel (hydroxypropylcellulose) (HPC)) was 94 % of control.

Oc1ccc(-c2nc3ccccc3nc2-c2ccc(O)cc2O)c(O)c1 was tested, and the T/C [12] was 96 % of control, the T/C [13] was 93 % of control and the T/C [14] was 96 % of control.

O=C(CCl)NC1=C(N2CC2)C(=O)c2ccccc2C1=O was tested, and the T/C (dose: 50.0 mg/kg/injection, schedule: Q04DX003 (ip), vehicle: Klucel (hydroxypropylcellulose) (HPC)) was 93 % of control and the T/C [11] was 91 % of control.

For CSc1ccccc1C[P+](c1ccccc1)(c1ccccc1)c1ccccc1, the T/C (dose: 1.56 mg/kg/injection, schedule: Q01DX009 (ip), vehicle: saline with Tween-80) was 102 % of control, the T/C (dose: 3.13 mg/kg/injection, schedule: Q01DX009 (ip), vehicle: saline with Tween-80) was 103 % of control and the T/C (dose: 6.25 mg/kg/injection, schedule: Q01DX009 (ip), vehicle: saline with Tween-80) was 105 % of control.

In the case of O=S(=O)(O)C1(O)CCCCC1, the T/C [4] is reported as 99 % of control, the T/C [5] is reported as 93 % of control and the T/C [6] is reported as 102 % of control. For the same compound, the T/C [7] was 103 % of control, the T/C [8] was 100 % of control and the T/C [9] was 113 % of control. The T/C [10] was 96 % of control.

In the case of CNC1=C(N2CC2)C(=O)C(NC)=C(N2CC2)C1=O, the T/C (dose: 0.01 mg/kg/injection, schedule: Q01DX009 (ip), vehicle: Klucel (hydroxypropylcellulose) (HPC)) is reported as 97 % of control and 102 % of control, the T/C (dose: 0.02 mg/kg/injection, schedule: Q01DX009 (ip), vehicle: Klucel (hydroxypropylcellulose) (HPC)) is reported as 100 % of control and 101 % of control and the T/C (dose: 0.04 mg/kg/injection, schedule: Q01DX009 (ip), vehicle: Klucel (hydroxypropylcellulose) (HPC)) is reported as 109 % of control and 119 % of control. For the same compound, the T/C (dose: 0.05 mg/kg/injection, schedule: Q01DX009 (ip), vehicle: saline) was 106 % of control, the T/C (dose: 0.09 mg/kg/injection, schedule: Q04DX003 (ip), vehicle: Klucel (hydroxypropylcellulose) (HPC)) was 110 % of control and the T/C (dose: 0.1 mg/kg/injection, schedule: Q01DX009 (ip), vehicle: saline) was 118 % of control. The T/C (dose: 0.1 mg/kg/injection, schedule: Q04DX003 (ip), vehicle: saline) was 103 % of control, the T/C (dose: 0.19 mg/kg/injection, schedule: Q01DX009 (ip), vehicle: Klucel (hydroxypropylcellulose) (HPC)) was 161 % of control and the T/C (dose: 0.2 mg/kg/injection, schedule: Q01DX009 (ip), vehicle: saline) was 173 % of control. The T/C (dose: 0.2 mg/kg/injection, schedule: Q04DX003 (ip), vehicle: saline) was 112 % of control, the T/C (dose: 0.37 mg/kg/injection, schedule: Q01DX001 (ip), vehicle: saline) was 108 % of control and the T/C (dose: 0.39 mg/kg/injection, schedule: Q01DX009 (ip), vehicle: Klucel (hydroxypropylcellulose) (HPC)) was 112 % of control and 88 % of control. The T/C (dose: 0.39 mg/kg/injection, schedule: Q04DX003 (ip), vehicle: Klucel (hydroxypropylcellulose) (HPC)) was 156 % of control, the T/C (dose: 0.78 mg/kg/injection, schedule: Q04DX003 (ip), vehicle: Klucel (hydroxypropylcellulose) (HPC)) was 112 % of control and 115 % of control and the T/C (dose: 0.8 mg/kg/injection, schedule: Q04DX003 (ip), vehicle: saline) was 157 % of control.

COC1OC(CNC(=O)N(C)N=O)C(O)C(O)C1O (stereo unspecified) was tested, and the T/C [6] was 115 % of control, the T/C (dose: 115.0 mg/kg/injection, schedule: Q04DX003 (ip), vehicle: saline) was 116 % of control and the T/C (dose: 132.0 mg/kg/injection, schedule: Q04DX003 (ip), vehicle: saline) was 120 % of control. The T/C [7] was 150 % of control and 170 % of control, the T/C (dose: 300.0 mg/kg/injection, schedule: Q01DX009 (ip), vehicle: saline) was 173 % of control and the T/C [9] was 166 % of control. The T/C [10] was 150 % of control and 160 % of control.

With CN(C)c1n[nH]c(=O)[nH]c1=O the T/C [12] was 91 % of control, the T/C [13] was 114 % of control and the T/C [14] was 93 % of control.

For CC1(C)N=C(N)N=C(N)N1c1ccc(Cl)c(Cl)c1, the T/C (dose: 1.0 mg/kg/injection, schedule: Q01DX009 (ip), vehicle: saline) was 111 % of control, the T/C (dose: 1.25 mg/kg/injection, schedule: Q01DX009 (ip), vehicle: saline) was 109 % of control and the T/C (dose: 2.5 mg/kg/injection, schedule: Q01DX009 (ip), vehicle: saline) was 109 % of control and 117 % of control. For the same compound, the T/C (dose: 5.0 mg/kg/injection, schedule: Q01DX001 (ip), vehicle: saline) was 105 % of control, the T/C (dose: 5.0 mg/kg/injection, schedule: Q01DX009 (ip), vehicle: saline) was 119 % of control and the T/C (dose: 10.0 mg/kg/injection, schedule: Q01DX001 (ip), vehicle: saline) was 102 % of control and 106 % of control. For the same compound, the T/C (dose: 10.0 mg/kg/injection, schedule: Q01DX009 (ip), vehicle: saline) was 117 % of control and 118 % of control, the T/C (dose: 20.0 mg/kg/injection, schedule: Q01DX001 (ip), vehicle: saline) was 105 % of control and 106 % of control and the T/C (dose: 20.0 mg/kg/injection, schedule: Q01DX009 (ip), vehicle: saline) was 92 % of control. For the same compound, the T/C (dose: 36.0 mg/kg/injection, schedule: Q01DX009 (ip), vehicle: saline) was 88 % of control and the T/C (dose: 40.0 mg/kg/injection, schedule: Q01DX001 (ip), vehicle: saline) was 107 % of control and 92 % of control.

— PubChem BioAssay AID248 (DTP/NCI, 2004)
